In ChEMBL document CHEMBL3580562 (J Med Chem, 2015):
One block for each compound: values may come before it.

Legend:
[1] = Half life in phosphate buffer at pH 7.4 at 37 degC; type: physicochemical
[2] = Drug level in microsomes (unknown origin) treated with (E)-3-(4-((E)-2-(2-chloro-4-fluorophenyl)-1-(1H-indazol-5-yl)but-1-enyl)phenyl)acrylic acid; type: ADME, Microsome
[3] = AUC in mouse at 100 mg/kg, po; type: ADME, organism-based; conditions: in vivo
[4] = AUC in mouse at 10 mg/kg, po; type: ADME, organism-based; conditions: in vivo
[5] = Drug uptake in CD-IGS rat at 1 mg/kg, po administered for 3 days measured at 24 hrs post last dose; type: ADME, organism-based; conditions: in vivo, read-out: Drug uptake
[6] = AUC in 17-beta estradiol pellets supplemented nu/nu mouse xenografted with tamoxifen-resistant human MCF7 cells at 100 mg/kg/day, po administered for 4 weeks measured on day 28; type: ADME, organism-based; conditions: in vivo
[7] = Drug uptake in CD-IGS rat at 1 mg/kg, po administered for 3 days measured at 6 hrs post last dose; type: ADME, organism-based; conditions: in vivo, read-out: Drug uptake
[8] = test system: Mus musculus; assay: AUC in mouse assessed as GW-7604 at 100 mg/kg, po; type: ADME, organism-based; conditions: in vivo
[9] = Cmax in mouse at 10 mg/kg, po; type: ADME, organism-based; parameters: dose 10 mg/kg, route oral; conditions: in vivo
[10] = Half life in mouse at 3 mg/kg, iv; type: ADME, organism-based; conditions: in vivo
[11] = Oral bioavailability in rat at 10 mg/kg; type: ADME, organism-based; conditions: in vivo
[12] = in vivo; conditions: mouse, iv, 3 mg/kg
[13] = AUC in cynomolgus monkey at 10 mg/kg, po; type: ADME, organism-based, Macaca fascicularis; conditions: in vivo
[14] = Clearance in dog at 3 mg/kg, iv and 10 mg/kg, po; type: ADME, organism-based, Canis lupus familiaris; conditions: in vivo
[15] = Volume of distribution at steady state in rat at 3 mg/kg, iv and 10 mg/kg, po; type: ADME, organism-based; conditions: in vivo, read-out: Vdss
[16] = Volume of distribution at steady state in cynomolgus monkey at 3 mg/kg, iv and 10 mg/kg, po; type: ADME, organism-based, Macaca fascicularis; conditions: in vivo, read-out: Vdss
[17] = Cmax in cynomolgus monkey at 10 mg/kg, po; type: ADME, organism-based, Macaca fascicularis; parameters: dose 10 mg/kg, route oral; conditions: in vivo
[18] = AUC in rat at 10 mg/kg, po; type: ADME, organism-based; conditions: in vivo
[19] = Cmax in rat at 10 mg/kg, po; type: ADME, organism-based; parameters: dose 10 mg/kg, route oral; conditions: in vivo
[20] = Volume of distribution at steady state in mouse at 3 mg/kg, iv and 10 mg/kg, po; type: ADME, organism-based; conditions: in vivo, read-out: Vdss
[21] = Drug metabolism in microsomes (unknown origin) assessed as formation of (2S,3S,4R,5R,6S)-6-((E)-3-(4-((E)-2-(2-chloro-4-fluorophenyl)-1-(1H-indazol-5-yl)but-1-enyl)phenyl)acryloyloxy)-3,4,5-trihydroxytetrahydro-2H-pyran-2-carboxylic acid; type: ADME, Microsome
[22] = Oral bioavailability in dog at 10 mg/kg; type: ADME, organism-based, Canis lupus familiaris; conditions: in vivo
[23] = Clearance in cynomolgus monkey at 3 mg/kg, iv and 10 mg/kg, po; type: ADME, organism-based, Macaca fascicularis; conditions: in vivo
[24] = Cmax in dog at 10 mg/kg, po; type: ADME, organism-based, Canis lupus familiaris; parameters: dose 10 mg/kg, route oral; conditions: in vivo
[25] = Clearance in rat at 3 mg/kg, iv and 10 mg/kg, po; type: ADME, organism-based; conditions: in vivo
[26] = Half life in cynomolgus monkey at 3 mg/kg, iv; type: ADME, organism-based, Macaca fascicularis; conditions: in vivo
[27] = AUC in 17-beta estradiol pellets supplemented nu/nu mouse xenografted with tamoxifen-resistant human MCF7 cells at 30 mg/kg/day, po administered for 4 weeks measured on day 28; type: ADME, organism-based; conditions: in vivo
[28] = AUC in dog at 10 mg/kg, po; type: ADME, organism-based, Canis lupus familiaris; conditions: in vivo
[29] = Half life in dog at 3 mg/kg, iv; type: ADME, organism-based, Canis lupus familiaris; conditions: in vivo
[30] = Volume of distribution at steady state in dog at 3 mg/kg, iv and 10 mg/kg, po; type: ADME, organism-based, Canis lupus familiaris; conditions: in vivo, read-out: Vdss
[31] = Oral bioavailability in cynomolgus monkey at 10 mg/kg; type: ADME, organism-based, Macaca fascicularis; conditions: in vivo
[32] = Half life in rat at 3 mg/kg, iv; type: ADME, organism-based; conditions: in vivo
[33] = AUC in 17-beta estradiol pellets supplemented nu/nu mouse xenografted with tamoxifen-resistant human MCF7 cells at 200 mg/kg, sc administered 3 times per week for 4 weeks measured on day 28; type: ADME, organism-based; conditions: in vivo

SMILES: CC/C(=C(/c1ccc(/C=C/C(=O)O[C@@H]2O[C@H](C(=O)O)[C@@H](O)[C@H](O)[C@H]2O)cc1)c1ccc2[nH]ncc2c1)c1ccc(F)cc1Cl
half-life [1]: 8.1 h
Drug metabolism [2]: metabolite_detected

SMILES: COc1ccc(-c2sc3cc(O)ccc3c2Oc2ccc(OCCN3CCCCC3)cc2)cc1 [ARZOXIFENE]
AUC at 672 h [6]: 50000 ng·h/mL

SMILES: CC/C(=C(/c1ccc(/C=C/C(=O)O)cc1)c1ccc2[nH]nnc2c1)c1ccccc1
AUC [4]: 2300 ng·h/mL

SMILES: Cc1c(-c2ccc(O)cc2)n(Cc2ccc(OCCN3CCCCC3)cc2)c2ccc(O)cc12 [PIPENDOXIFENE]
AUC at 672 h [6]: 7000 ng·h/mL

SMILES: CC/C(=C(\c1ccc(O)cc1)c1ccc(/C=C/C(=O)O)cc1)c1ccccc1
AUC [8]: 13000 ng·h/mL

SMILES: C[C@]12CC[C@@H]3c4ccc(O)cc4C[C@@H](CCCCCCCCC[S+]([O-])CCCC(F)(F)C(F)(F)F)[C@H]3[C@@H]1CC[C@@H]2O (stereo partly specified) [FULVESTRANT]
AUC at 672 h [33]: 11000 ng·h/mL

SMILES: CC/C(=C(/c1ccc(/C=C/C(=O)O)cc1)c1ccc2[nH]ccc2c1)c1ccccc1
AUC [4]: 9400 ng·h/mL

SMILES: CC/C(=C(/c1ccc(/C=C/C(=O)O)cc1)c1ccc2[nH]c(=O)oc2c1)c1ccccc1
AUC [4]: 3000 ng·h/mL
concentration at 24 h [5]: 0.2 nM

SMILES: CC/C(=C(\c1ccccc1)c1ccc(/C=C/C(=O)O)cc1)c1ccccc1
AUC [3]: 137000 ng·h/mL

SMILES: O=C(Cc1ccccc1Nc1c(Cl)cccc1Cl)O[C@@H]1O[C@H](C(=O)O)[C@@H](O)[C@H](O)[C@H]1O
half-life [1]: 0.9 h

More lines, now with the values ahead:

AUC [3]: 240000 ng·h/mL
AUC [4]: 5800 ng·h/mL
concentration at 24 h [5]: 3.8 nM
SMILES: CC/C(=C(/c1ccc(/C=C/C(=O)O)cc1)c1ccc2[nH]ncc2c1)c1ccccc1

AUC [4]: 200 ng·h/mL
SMILES: CC/C(=C(/c1ccc(/C=C/C(=O)O)cc1)c1ccc2[nH]ncc2c1)c1ccccc1C#N

AUC [4]: 110 ng·h/mL
concentration at 24 h [5]: 0.5 nM
SMILES: CC/C(=C(/c1ccc(/C=C/C(=O)O)cc1)c1ccc2[nH]ncc2c1)c1ccncc1Cl

AUC [4]: 11000 ng·h/mL
concentration at 24 h [5]: 11 nM
SMILES: CC/C(=C(/c1ccc(/C=C/C(=O)O)cc1)c1ccc2[nH]ncc2c1)c1cccc(Cl)c1

concentration at 6 h [7]: 10 nM
AUC [4]: 2900 ng·h/mL
SMILES: CC/C(=C(/c1ccc(/C=C/C(=O)O)cc1)c1ccc2[nH]ncc2c1)c1ccc(C#N)cc1Cl

AUC [4]: 2800 ng·h/mL
concentration at 24 h [5]: 0.1 nM
SMILES: CC/C(=C(/c1ccc(/C=C/C(=O)O)cc1)c1cccc2[nH]ncc12)c1ccccc1

Cmax [9]: 4400 ng/mL
half-life [10]: 4.2 h
bioavailability [11]: 49%
clearance [12]: 11 mL/min/kg
AUC [13]: 10000 ng·h/mL
clearance [14]: 1.6 mL/min/kg
Vd [15]: 1.9 L/kg
Vd [16]: 0.5 L/kg
Cmax [17]: 6100 ng/mL
AUC [18]: 5800 ng·h/mL
Cmax [19]: 1800 ng/mL
Vd [20]: 1.2 L/kg
Drug metabolism [21]: metabolite_detected
bioavailability [22]: 61%
clearance [23]: 7 mL/min/kg
AUC [4]: 8800 ng·h/mL
AUC at 672 h [6]: 45000 ng·h/mL
Cmax [24]: 20000 ng/mL
clearance [25]: 14 mL/min/kg
half-life [26]: 13 h
AUC at 672 h [27]: 21000 ng·h/mL
AUC [28]: 69000 ng·h/mL
half-life [29]: 11 h
Vd [30]: 0.2 L/kg
concentration at 24 h [5]: 5.2 nM
bioavailability [31]: 42%
half-life [32]: 3.9 h
SMILES: CC/C(=C(/c1ccc(/C=C/C(=O)O)cc1)c1ccc2[nH]ncc2c1)c1ccc(F)cc1Cl [BRILANESTRANT]

AUC [4]: 7200 ng·h/mL
concentration at 24 h [5]: 1.7 nM
SMILES: CC/C(=C(/c1ccc(/C=C/C(=O)O)cc1)c1ccc2[nH]ncc2c1)c1ccccc1C

AUC [4]: 81 ng·h/mL
concentration at 24 h [5]: 7.6 nM
SMILES: CC/C(=C(/c1ccc(/C=C/C(=O)O)cc1)c1ccc2[nH]ncc2c1)c1ccncc1C

AUC [4]: 15000 ng·h/mL
concentration at 24 h [5]: 3.7 nM
SMILES: CC/C(=C(/c1ccc(/C=C/C(=O)O)cc1)c1ccc2[nH]ncc2c1)c1ccccc1Cl

concentration at 6 h [7]: 14 nM
AUC [4]: 4300 ng·h/mL
SMILES: CC/C(=C(/c1ccc(/C=C/C(=O)O)cc1)c1ccc2[nH]ncc2c1)c1ccc(C#N)cc1C

AUC [4]: 3800 ng·h/mL
concentration at 24 h [5]: 10 nM
SMILES: CC/C(=C(/c1ccc(/C=C/C(=O)O)cc1)c1ccc2[nH]ncc2c1)c1cscc1C
